Tests used:
[1] = target: T1, FLAG-RhoA (Homo sapiens, UniProt P61586); test: CL16-alkyne labeling of FLAG-RhoA in HCT116 cells (anti-FLAG IP, CuAAC, in-gel fluorescence); format: cell-based; conditions: pre-incubation 2 h
T1 construct: expressed in transfected cells; host or cells: HCT116
Procedure: HCT116 cells transiently expressing FLAG-RhoA were pre-treated with solvent vehicle or CL16 for 2 h, followed by the incubation with CL16-alkyne in complete medium for another 2 h. The cells were then lysed and subjected to immunoprecipitation by anti-FLAG beads. The enriched proteins were reacted with rhodamine azide through copper-catalyzed azide-alkyne cycloaddition (CuAAC), boiled with sampling buffer and separated by SDS-PAGE. The protein bands were then visualized by their in-gel fluorescence or blotted for RhoA. […] HCT116 cells were pre-treated with solvent vehicle or CL16 for 2 h, followed by the incubation with CL16-alkyne in complete medium for another 2 h. The cells were then lysed, reacted with rhodamine azide through CuAAC, boiled with sampling buffer, separated by SDS-PAGE and imaged. […]
To identify protein target and any off-targets of CL16 in CRCs, a molecular probe of CL16, CL16-alkyne (FIG. 6A), was synthesized. […] The protein bands were then visualized by their in-gel fluorescence or blotted for RhoA. […] The probe-labeled proteins were installed with rhodamine through CuAAC, and visualized by their in-gel fluorescence after SDS-PAGE. A protein band with strong fluorescence was found at −22 kDa in the sample incubated with CL16-alkyne only, in line with the molecular weight of RhoA (FIG. 6C).

[2] = test system: CRCs; test: MTT assay on CRC cells; format: cell-based, human; conditions: 48 h
Procedure: HCT116 cells was seeded at 2,500 cells/well; HT29, LOVO and SW620 cells were seeded at 4,000 cells/well; CCD-18Co cells were seeded at 10,000/well; and SW480 cells were seeded at 12,000 cells/well in 96 well plate in triplicates. Cells were treated with a concentration gradient of CL16 for 48 hours. Then, cells were incubated with 10% 3-(4,5-Dimethylthiazol-2-yl)-2,5-diphenyltetrazolium bromide (MTT) solution ([…]) in 37° C. for 4 hours. Cells were then lyzed in 10% SDS in […] HCl. Absorbance of individual well was measured at 570 nm. IC50 values were analyzed by nonlinear best-fit regression using Prism Graphpad 9.
As discussed above, overexpression/hyperactivity of RhoA associated with poor prognosis and aggressive behaviors of CRCs (FIG. 8A). Thus, the anti-cancer and anti-metastatic properties of CL16 in CRCs were explored. First, it was confirmed that genetic knockdown of RhoA by siRNA slowed down colony formation and migration of CRCs by using staining (data not shown) and wound healing assay (FIG. 4A). MTT assay was used to determine cell viability of CRCs and normal colon fibroblast CCD-18Co cells treated with CL16 for 48 h (n=3 different biological replicates/group). A much lower expression level of RhoA in normal colon fibroblast CCD-18Co cells was also determined, as compared to CRCs, by western blotting (data not shown). […]

[3] = target: T2, RhoA (Homo sapiens, UniProt P61586); test: Gel-based competitive ABPP (iodoacetamide-rhodamine) on purified RhoA; set-up: purchased ab101594; conditions: competition with IA-Rh, dose-dependent experiments; read-out: IC50 of the competitive binding / in vitro RhoA binding
T2 sequence (P61586 whole entry): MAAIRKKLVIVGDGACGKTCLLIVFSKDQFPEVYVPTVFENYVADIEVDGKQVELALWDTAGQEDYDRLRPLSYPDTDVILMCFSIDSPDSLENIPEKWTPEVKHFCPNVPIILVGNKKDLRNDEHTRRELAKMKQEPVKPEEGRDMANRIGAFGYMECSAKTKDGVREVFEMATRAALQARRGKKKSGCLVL
Procedure: Recombinant human RhoA (0.1 μg; ab101594) was pretreated with cysteine-reactive compounds or DMSO for 1 hour at room temperature, followed by incubation with iodoacetamide-rhodamine (IA-Rh; 1 μM) for 1 hour at room temperature. The reaction was then quenched by boiling in sampling buffer. Samples were subjected to SDS-PAGE to separate proteins bands. In-gel fluorescence intensity was measured with a Chemidoc using setting for Rhodamine. Gel was subsequently stained with silver stain (Pierce) for visualization of protein content and covalent modification. Band intensity was quantified using ImageJ.
CL16 was identified for its strong and specific binding with RhoA in covalent ligand screening experiment by ABPP. ABPP is known as a powerful platform for covalent ligand screening, particularly for the identification of lead compounds targeting new hotspots for therapy. Competitive gel-based activity-based protein profiling (ABPP) experiment was performed on purified RhoA protein for screening its interactions with a library of cysteine-reactive covalent ligands with acrylamide or chloroacetamide warheads. RhoA protein for the first screening and on Rac1 and Cdc42 for the second screening to identify lead compounds with specific binding onto RhoA Cys16. […] The reaction mixture was then resolved by SDS-PAGE and in-gel fluorescence was imaged (FIG. 1A). […]

[4] = target: T2, RhoA; test: Fluorescence assay of MANT-GTP binding onto RhoA; format: biochemical; conditions: pre-incubation of RhoA with CL16
Procedure: FIGS. 10A and 10B are graphs showing GTP binding assay of RhoA (0.75 μg) with CL16 (FIG. 10A) and GTP-MANT (5.6 μM) (FIG. 10B) in the buffer solution (20 mM Tris, 50 mM NaCl, 10 mM MgCl2, pH 7.5).

T1 sequence (P61586 whole entry): as above

SMILES: O=C(CCl)N1N=C(c2cc3ccccc3o2)CC1c1ccco1 (stereo not shown) [CL16]
- competition with CL16-alkyne labeling of FLAG-RhoA [1]: competed with the alkyne probe labeling
- cytotoxicity (cell viability) [2]: cytotoxicity effects
- IC50 [3]: 440 nM
- MANT-GTP binding onto RhoA (increase in fluorescence intensity) [4]: significantly slowed down the increase in fluorescence intensity
